The values that follow come from patent US6565830B1, “DTPA monoamides, pharmaceutical agents containing these compounds, their use and process for their production” (Schering Aktiengesellschaft, priority 1990, dated 2003).

One series has as its target human serum albumin (Homo sapiens, UniProt P02768). Nature of the series: Association with human serum albumin in aqueous solution. In kind it is binding.
The next series relates to liver. As to the kind of experiment: In vivo NMR diagnosis (MRI) after oral administration, rat. The conditions noted are these: p.o. 0.5 mmol of Gd/kg. From the text:
This finding agrees very well with the pharmacokinetic data.

A further series concerns Brown-Pearce tumor. Nature of the series: In vivo NMR diagnosis (MRI) after intravenous administration, rat with Brown-Pearce tumor in the liver. The following applies: i.v. 0.1 mmol of Gd/kg.
The conditions of series [1]: cited from earlier work.

human serum albumin, sequence (P02768 25-609): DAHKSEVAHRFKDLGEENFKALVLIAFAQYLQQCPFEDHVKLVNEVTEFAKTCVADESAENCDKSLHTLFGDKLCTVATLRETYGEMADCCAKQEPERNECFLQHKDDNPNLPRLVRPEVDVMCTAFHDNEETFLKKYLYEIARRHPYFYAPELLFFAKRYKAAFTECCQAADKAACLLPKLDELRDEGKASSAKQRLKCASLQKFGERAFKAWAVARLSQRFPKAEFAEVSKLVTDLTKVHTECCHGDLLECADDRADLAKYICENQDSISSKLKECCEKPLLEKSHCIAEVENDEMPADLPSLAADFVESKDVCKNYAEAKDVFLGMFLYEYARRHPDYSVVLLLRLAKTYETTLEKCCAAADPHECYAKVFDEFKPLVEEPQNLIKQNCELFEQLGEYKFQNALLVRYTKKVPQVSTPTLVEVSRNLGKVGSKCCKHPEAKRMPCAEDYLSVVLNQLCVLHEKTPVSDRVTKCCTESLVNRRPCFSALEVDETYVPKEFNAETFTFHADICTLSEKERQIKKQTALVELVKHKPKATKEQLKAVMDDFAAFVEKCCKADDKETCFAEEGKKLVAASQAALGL
Experimental for Brown-Pearce tumor: A cell suspension of the Brown-Pearce tumor was injected in the liver in a test animal (rat, strain lew/mol, female, 155 g) two weeks before the test. In the method used, about 2 weeks were required until the tumor had reached the size of 0.5-1 cm^3 desired for the test.
For the test, the animal was anesthetized (Rompun+Ketavet) and then a catheter was placed in the caudal vein for the administration of the contrast medium.
The imaging took place in an MRI experimental device of the General Electric company (field strength 2 teslas). The first image was made without contrast media with a T1-weighted spin echo sequence (TR=400 msec, TE=20 msec, layer thickness 3 mm).

For `CCCCCCC(CCCCCCCCCCC(=O)O)NC(=O)CN(CCN(CCN(CC(=O)O)CC(=O)O)CC(=O)O)CC(=O)O.[Gd]` (centres unmarked) [Example 4b, Gadolinium complex of 3,6-bis(carboxymethyl)-9-(11-carboxy-1-n-hexyl-undecylcarbamoylmethyl)-3,6,9-triazaundecanedioic acid], the “association with human serum albumin” value at human serum albumin is reported as “forms associates”.

For the compound `O=C(O)CCCCCCCCCCNC(=O)CN(CCN(CCN(CC(=O)O)CC(=O)O)CC(=O)O)CC(=O)O.[Gd]` [Example 1b, Gadolinium complex of 3,6-bis(carboxymethyl)-9-(10-carboxydecylcarbamoylmethyl)-3,6,9-triazaundecanedioic acid], in the series with liver, the “resorption after oral administration” value is “resorbed in the small intestine after oral administration and is immediately taken up again for the most part by the liver”. The “signal in the liver in MRI image” value in the series with liver (45 minutes after administration (image 3)) is “slight increase in the signal in the liver”. In addition, in the series with liver (180 minutes after administration (image 4)), the “enhancement in the liver in MRI image” value is “marked enhancement”. Further, the “secretion in the stomach” value in the series on Brown-Pearce tumor is “secreted in the stomach”. In the series with Brown-Pearce tumor (60 minutes), the “distribution of contrast medium between liver and tumor” value is “concentrated in the liver to a great extent, but, not in the tumor”. Also, in the series on Brown-Pearce tumor (60 minutes (image no. 2)), the “enhancement of the stomach in MRI image” value was “very strong enhancement”. In addition, the “appearance of liver tumor in MRI image” value in the series on Brown-Pearce tumor (60 minutes after administration) was “considerably darker in comparison with the surrounding liver tissue”. For the same compound, the “signal intensity of liver parenchyma in MRI image” value in the series on Brown-Pearce tumor (60 minutes after administration, T1-weighted spin echo, 2 teslas) is on record as “very bright”.

As for `CNC[C@H](O)[C@@H](O)[C@H](O)[C@H](O)CO.CNC[C@H](O)[C@@H](O)[C@H](O)[C@H](O)CO.O=C([O-])CN(CCN(CC(=O)[O-])CC(=O)O)CCN(CC(=O)[O-])CC(=O)O.[Gd+3]` [Magnevist, gadolinium(III) complex of diethylenetriaminepentaacetic acid], in series [1], the “distribution after intravenous injection” value is “spreads extracellularly” and the “route of elimination after intravenous injection” value is listed as “eliminated by glomerular secretion through the kidneys”.
